In patent US20210030802A1, “GLUCOCORTICOID-RESISTANT LEUKOCYTES AND THEIR USE IN THE TREATMENT OF CANCERS AND VIRUSES” (CONSTANT BIOTECHNOLOGY, LLC, priority 2018, published 2021):

T1: HSD11B2 (Homo sapiens, UniProt P80365)
T1 construct: expressed in transfected cells
T1 sequence (P80365 1-405): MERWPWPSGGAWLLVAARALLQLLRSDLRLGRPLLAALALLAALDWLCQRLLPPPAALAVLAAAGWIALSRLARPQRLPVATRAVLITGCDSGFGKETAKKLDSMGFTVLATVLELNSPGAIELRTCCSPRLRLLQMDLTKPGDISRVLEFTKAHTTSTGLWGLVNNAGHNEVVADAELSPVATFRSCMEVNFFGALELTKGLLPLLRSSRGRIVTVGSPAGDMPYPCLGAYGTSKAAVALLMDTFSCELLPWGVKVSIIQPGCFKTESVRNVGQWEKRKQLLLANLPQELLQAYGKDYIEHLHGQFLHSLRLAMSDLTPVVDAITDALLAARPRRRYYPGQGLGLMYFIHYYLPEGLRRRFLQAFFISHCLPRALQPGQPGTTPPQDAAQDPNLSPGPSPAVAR

B1: wtExon1-none: modified HSD11B2 gene wherein approximately exon 1 was not codon modified but remained wild type (SEQ ID No.: 31) (nucleic acid)
DNA: CCCCTCACTCGGCGCGATCTAGATCTCGAATCGCCAGCCCGCTGGGCCGCCATGGAGCGCTGGCCTTGGCCGTCGGGCGGCGCCTGGCTGCTCGTGGCTGCCCGCGCGCTGCTGCAGCTGCTGCGCTCAGACCTGCGTCTGGGCCGCCCGCTGCTGGCGGCGCTGGCGCTGCTGGCCGCGCTCGACTGGCTGTGCCAGCGCCTGCTGCCCCCGCCGGCCGCACTCGCCGTGCTGGCCGCCGCCGGCTGGATCGCGTTGTCCCGCCTGGCGCGCCCGCAGCGCCTGCCGGTGGCCACTCGCGCGGTGCTCATCACCGGTTGTGACTCTGGTTTTGGTAAGGAGACGGCTAAGAAACTGGACTCCATGGGTTTCACGGTGCTGGCTACCGTATTGGAGTTGAACAGCCCTGGTGCTATCGAGCTGCGTACCTGCTGCTCCCCTCGTCTAAGGCTGCTGCAGATGGACCTGACCAAACCAGGAGACATTAGCCGTGTGCTAGAGTTCACCAAGGCTCACACCACCAGCACCGGTCTGTGGGGTCTCGTCAACAACGCAGGTCACAATGAAGTAGTTGCTGATGCAGAGCTGTCTCCAGTGGCTACTTTCCGTAGCTGCATGGAGGTGAATTTCTTTGGTGCACTCGAGCTGACCAAGGGTCTCCTGCCTCTGCTGCGTAGCTCAAGGGGTCGTATCGTGACTGTGGGAAGCCCAGCAGGAGACATGCCATATCCATGCTTGGGAGCTTATGGAACCTCCAAAGCAGCTGTGGCACTACTCATGGACACATTCAGCTGTGAACTCCTTCCTTGGGGAGTCAAGGTCAGCATCATCCAGCCTGGTTGCTTCAAGACAGAGTCAGTGAGAAACGTGGGTCAGTGGGAAAAGCGTAAGCAATTGCTGCTGGCTAACCTGCCTCAAGAGCTGCTGCAGGCTTACGGTAAGGACTACATCGAGCACTTGCATGGACAGTTCCTGCACTCGCTACGTCTGGCTATGTCCGACCTCACCCCAGTTGTAGATGCTATCACAGATGCACTGCTGGCAGCTAGGCCTCGTCGTCGTTATTACCCTGGTCAGGGTCTGGGACTCATGTACTTCATCCACTACTACCTGCCTGAAGGTCTGAGGCGTCGTTTCCTGCAGGCTTTCTTCATCAGTCACTGTCTGCCTCGAGCACTGCAGCCTGGTCAGCCTGGTACTACCCCACCACAGGACGCAGCTCAGGACCCAAACCTGAGCCCTGGTCCTTCCCCAGCAGTGGCTAGGTGACCTGAAAAAGGGGTACCTTTAAGACCAATGACTTACAAGGCAGCTGTAG
modifications: wtExon1-none

Tests used:
RS4;11 cells = test: Survival of lenti-transduced cells in presence of steroids with or without HSD inhibitor (CELLTITER-GLO); assay type: cell-based, human; conditions: HSD11B2-transduced RS4;11 cells; for Effect of HSD inhibitor on steroid protection of transduced cells: DEX or PRED, carbenoxolone 1 μM and 10 μM; for Reversal of protection against dexamethasone by HSD inhibitor / Reversal of protection against prednisolone by HSD inhibitor: posaconazole 1 μM, carbenoxolone 10 μM or 1 μM
HSD11B1 = biological target: T2, HSD11B1 (Homo sapiens, UniProt P28845); test: Effect of HSD inhibitor on steroid degradation by HSD11B1-transduced stimulated leukocytes; assay type: cell-based; conditions: posaconazole 7 μM
T2 construct: expressed in transfected cells

HSD11B2 = biological target: T1, HSD11B2; test: Effect of HSD inhibitor on steroid degradation by HSD11B2-transduced stimulated leukocytes; assay type: cell-based; conditions: posaconazole 7 μM
stimulated leukocytes [1] = test: Steroid degradation by lentivirally transduced stimulated leukocytes, steroid detected by ELISA; assay type: cell-based, human
stimulated leukocytes [2] = test: Conversion of cortisol to cortisone by transduced stimulated leukocytes, UHPLC-Mass Spectrometry; assay type: cell-based, human
Protocol: Human peripheral blood leukocytes (HPBL) were prepared by density gradient centrifugation of anti-coagulated human blood (Cincinnati Children's Hospital Cell Processing Core). HPBL were stimulated with CYTOSTIM™, inteleukin 2 (IL-2) in TEXMACS™ media (all reagents, Miltenyi Biotech) according to manufacturer's instructions for three days. […] After stimulation, the entire population of stimulated cells (“stimulated leukocytes”) were cryopreserved in cell freezing media which contained dimethyl sulfoxide (DMSO). Prior to experiments, cryopreserved stimulated leukocytes were thawed, washed twice and cultured in TEXMACS™ media supplemented with 10% (v/v) heat inactivated fetal bovine serum (HI-FBS, VWR). After an overnight incubation, typical cell viability post-thaw was greater than 95% as determined by Trypan blue dye exclusion. Post-thaw, cells were cultured overnight prior to transduction with lentivirus. […]
Viral copy number (VCN) was assessed on cell pellets by real-time polymerase chain reaction (RT-PCR) by extracting the genomic DNA and using primers and probes for the R-U5 region of the lentiviral vector. VCN was determined using a cGMP testing protocol conducted by the Translational Trials Support & Development Laboratory of Cincinnati Children's Hospital. […] To permit direct comparison of the intrinsic activity of each enzyme construct—independent of any variability of target cell transduction or number of transduced cells in an experimental arm—VCN values were combined with the number of live cells measured at the end of incubation to adjust data to reflect a uniform level of cells carrying the transgene.
Cortisol and cortisone levels in supernatants were quantified by the Michigan Regional Comprehensive Metabolomics Resource Core at the University of Michigan, Ann Arbor, Mich., in a delta 4 (D4-) steroid hormone assay using combined ultra-high pressure liquid chromatography and triple quadrapole (UHPLC-QQQ) mass spectrometry. […]

T2 sequence (P28845 whole entry): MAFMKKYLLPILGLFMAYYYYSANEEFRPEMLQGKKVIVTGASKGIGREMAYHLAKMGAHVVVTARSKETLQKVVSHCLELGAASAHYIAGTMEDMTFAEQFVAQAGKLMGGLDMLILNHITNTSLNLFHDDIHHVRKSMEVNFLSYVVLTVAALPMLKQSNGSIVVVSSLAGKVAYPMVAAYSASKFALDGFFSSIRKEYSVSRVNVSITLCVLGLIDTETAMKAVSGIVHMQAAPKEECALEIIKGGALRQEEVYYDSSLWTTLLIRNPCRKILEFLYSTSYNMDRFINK

Molecule	Effect of HSD inhibitor on steroid protection of transduced cells (RS4;11 cells)	Effect of HSD inhibitor on steroid protection of transduced cells (RS4;11 cells; listed as Carbenoxolone)	Reversal of protection against dexamethasone by HSD inhibitor (RS4;11 cells)	Reversal of protection against prednisolone by HSD inhibitor (RS4;11 cells)	Inhibition of HSD11B1 degradation of steroids (HSD11B1)	Inhibition of HSD11B1 depletion (conversion) of prednisolone and dexamethasone (HSD11B1)	Inhibition of steroid degradation by HSD11B2 genes (HSD11B2, B2-Tag and wtExon1-none) (HSD11B2)	Cortisol levels at end of assay (stimulated leukocytes [1]; cortisol 100 nM, ELISA)	Degradation of cortisol, prednisolone and dexamethasone (stimulated leukocytes [1]; steroid 100 nM, 18 to 24 hours, adjusted for number of transgene bearing cells)	Rate of conversion of prednisolone or dexamethasone (stimulated leukocytes [1]; transduced leukocytes)	Generation of cortisone from cortisol (stimulated leukocytes [2]; UHPLC-Mass Spectrometry)	Rate of cortisol depletion indirectly calculated from cortisone production (stimulated leukocytes [2]; assuming no inter-conversion)	Rate of conversion of cortisol to cortisone (stimulated leukocytes [2]; transduced leukocytes)
CC1(C)[C@@H](OC(=O)CCC(=O)O)CC[C@]2(C)[C@H]3C(=O)C=C4[C@@H]5C[C@@](C)(C(=O)O)CC[C@]5(C)CC[C@@]4(C)[C@]3(C)CC[C@@H]12 [carbenoxolone]	reduced or eliminated	showed a dose response effect	Protection was reversed	Protection was reversed									
CC[C@@H]([C@H](C)O)n1ncn(-c2ccc(N3CCN(c4ccc(OC[C@@H]5CO[C@@](Cn6cncn6)(c6ccc(F)cc6F)C5)cc4)CC3)cc2)c1=O [posaconazole]	reduced or eliminated		Protection was reversed	Protection was reversed	also inhibited	strongly inhibited	inhibited						
B1								below the limit of quantitation	degraded the steroids	at least 2000 pg/hour/10^5 of genetically modified leukocytes	generated cortisone	about 1,014 pg/hr/10e5 copies of the transgene	800-1200 pg/hour/10^5 of genetically modified leukocytes
